# Assay results as given in paper PMC10622513, “A fluorogenic, peptide-based probe for the detection of Cathepsin D in macrophages” (Communications Chemistry, 2023).
# Entries after “also recorded” stand apart in the source; their conditions may differ.
# Tests used:
# [1] = set-up: method as in PMID 29876538; conditions: acids such as TFA or HCl; cited from earlier work
# Source text: The Methyl Red (MR) quencher was incorporated by coupling Fmoc-Lys(MR)-OH[20] onto a Rink-amide functionalised polystyrene resin (0.7 mmol/g), followed by the substrate sequence, using DIC and Oxyma as the coupling combination. The use of Fmoc-Lys(MR)-OH as a building block avoided the need for orthogonal deprotection on the resin[27],[28]. A bis-ethylene glycol spacer was introduced as the last amino acid before the fluorophore to increase hydrophilicity and promote aqueous solubility of the probe. The BODIPY (1,3,5,7-tetramethyl-8-phenyl-4,4-difluoroboradiazaindacene) fluorophore chosen as p ...
# [2] = test system: human cathepsin D; conditions: cited from earlier work
# Source text: Herein, we report the design and synthesis of a fluorogenic probe, based on a specific substrate for CatD, which provides an OFF→ON signal upon activation with good signal amplification. […] When choosing a substrate to build an optical probe to be used in cells and potentially in vivo, control of cross-reactivities is vital and it is important to design a specific substrate that is not ...
# [3] = cited from earlier work
# Source text: The new probe designed here was FRET-based, with a BODIPY fluorophore at the N-terminus, while the C-terminal Gln was replaced with a Lys residue functionalised with a quencher (Methyl Red, λmax 500 nm)[20].
# [4] = test system: CatD activity in human monocyte-derived macrophages (MDM); test: Confocal imaging of CatD activity in monocyte-derived macrophages; format: cell-based; conditions: Pepstatin A 20 μM, S. pneumoniae MOI 10:1, CatD-P3 10 μM
# Procedure: Confocal fluorescence microscopy (λex 488, λem 512 nm) images of the detection of CatD activity in monocyte-derived macrophages. […] Mock infected macrophages (no bacteria) were used as a control (left panel). […] At 10 h the cells were washed, fixed in 2% paraformaldehyde and cell nuclei were counter-stained with DAPI (λex 405, λem 461 nm).
# Human MDM were matured in 24-well Corning tissue culture plates over 14 days from Peripheral Blood Mononuclear cells obtained healthy volunteers by informed written consent, under ethical approval 21-EMREC-041. Following maturation, the MDM were removed from wells by treatment with Accutase (BioLegend) and re-seeded onto iBidi 8-well chamber slides. […] Following fixation, cells were washed again with 3 × PBS, with DAPI (0.1 µg/mL) added in the 2nd PBS wash for 10 min.
# In these experiments, macrophages were incubated for 6 h in the presence or absence (Mock)
# (20 μM) was added aoer 4 h. At 10 h the cells were washed, ﬁxed in 2% paraformaldehyde and cell nuclei
# were counter-stained with DAPI (λex 405, λem 461 nm).
compound,measurement,setting,value
"CC1=CC(C)=[N+]2C1=C(c1ccccc1)c1c(C)cc(C)n1[B-]2(F)F [BODIPY, 1,3,5,7-tetramethyl-8-phenyl-4,4-difluoroboradiazaindacene]",stability to acids,[1],not stable to acids
"Ala-Ile-Ala-Phe↑Phe-Ser-Arg-Gln [kallistatin, natural CatD substrate kallistatin, from which Pimenta et al. derived the substrate]",Km,[2],0.27 µM
same,kcat,[2],16.25 s⁻¹
CC1=CC(C)=[N+]2C1=C(c1ccc(C(=O)ON3C(=O)CCC3=O)cc1)c1c(C)cc(C)n1[B-]2(F)F [compound 2],fluorescence quantum yield Φ,[3],0.6
same,pH sensitivity of fluorescence,[3],pH insensitive
Pepstatin A,effect of Pepstatin A on CatD-P3 fluorescence in infected macrophages,[4],a decrease in the fluorescence signal; also recorded: prevented CatD-P3 activation resulting in reduced/no green fluorescence; also recorded: marked decrease in fluorescent signal
